Like-named read-outs stand apart in the source and are kept apart here.
What was measured:
PDE4D = target: T1, PDE4D (Homo sapiens, UniProt Q08499); assay: PDE4 IC50 determination by Scintillation Proximity Assay, PDE4D; assay type: biochemical
T1 construct: PDE4D: The catalytic domain of human PDE4B from S3 16-V692; His6 (N); thrombin cleavage site (N); made in house; host or cells: E. coli
Procedure, shortened: (§1)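 Enzyme was added to compound and [^3H]cAMP, then incubated 30 min at 30° (PDE4B 80 ng/ml; PDE4D 4 ng/ml). Product [^3H]AMP bound to SPA beads and was counted. IC50 was fitted by non-linear regression against DMSO and roflumilast controls.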

[1] = target: T2, PDE4B: The catalytic domain of human PDE4B from S152-S528 (Homo sapiens, UniProt Q07343); assay: PDE4 IC50 determination by Scintillation Proximity Assay, PDE4B; assay type: biochemical
T2 construct: His6 (N); thrombin cleavage site (N); made in house; host or cells: E. coli
Procedure, shortened: as §1

[2] = target: T3, full-length human PDE4B2 isozyme (Homo sapiens, UniProt Q07343); assay: PDE4 IC50 determination by Scintillation Proximity Assay, PDE4B2; assay type: biochemical; settings: Table 1B, Formula I compounds; read-out: IC50 PDE4B2
T3 construct: The full-length human PDE4B2 isozyme; His6 (N); TEV cleavage site (N); made in house; host or cells: baculovirus infected insect cells (unpurified lysate)
Procedure, shortened: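 Unpurified His6-TEV-tagged full-length human PDE4B2 from baculovirus-infected insect cell lysate (2.5 μl of 50% glycerol stock/ml) hydrolysed [3H]cAMP in 50 mM Tris pH 7.5, 8.3 mM MgCl, 1.7 mM EGTA, 0.01% BSA for 30 min at 30°. Stopped with SPA beads in 18 mM ZnSO4; [3H]AMP scintillation counted, IC50 by non-linear regression.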

[3] = tested on: TNFα levels in serum of LPS-challenged rats; assay: Rat inhibition studies: serum TNFα after iv LPS challenge; assay type: in vivo; settings: read-out: % inhibition r TNFα
Experimental: All studies were done with male rats CD (SD) IGS BR (Crl) (Charles River, France), which were grouped in to 5 animal groups.
At the end of the acclimatization period, the non-fasted rats were weighed, individually identified on the tail with a permanent marker and administered by oral (po) or interperitoneal (ip) route with either vehicle, reference or test compound in a volume of 10 mL/kg adapted to the body weight. The animals were gathered in groups of 5 animals in a polystyrene labeled cage with sawdust covered floors. 2-hours after vehicle, reference or test substance administration, rats received an intravenous (iv) injection of 0.1 mg/kg LPS in a volume of 1 mL/kg of body weight. 2 h after LPS challenge (or as indicated in Tables 3B and 4B), blood samples were collected into tubes without anticoagulant by retro-orbital puncture under gas (isoflurane) anesthesia. Samples were allowed to clot at room temperature for 5 to 10 min then put on ice until there were prepared by centrifugation (6000×g for 3 min at 4° C.) and stored at −20° C. until use. TNFα levels were measured in serum samples in duplicate by ELISA technique according to the manufacturer's procedure (Rat TNFα kit Quantikine M (RTA00, R&D System, France)). Data are reported as percent decrease in observed TNFα levels versus TNFa levels observed for vehicle dosed animal groups.

[4] = target: T4, full-length human PDE4D5 isozyme (Homo sapiens, UniProt Q08499); assay: PDE4 IC50 determination by Scintillation Proximity Assay, PDE4D5; assay type: biochemical; settings: Table 1B, Formula I compounds; read-out: IC50 PDE4D5
T4 construct: The full-length human PDE4D5 isozyme; His6 (N); TEV cleavage site (N); made in house; host or cells: baculovirus infected insect cells (unpurified lysate)
Procedure, shortened: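 Unpurified His6-tagged full-length human PDE4D5 from baculovirus-infected insect cell lysate, 0.083 μl glycerol stock/ml, hydrolysed [3H]cAMP in Tris pH 7.5/MgCl/EGTA buffer, 30 min at 30°. ZnSO4/SPA beads stop; [3H]AMP counted. Controls: DMSO and roflumilast; 11-point duplicate curves, nonlinear-regression IC50.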

[5] = Table 1B, Formula I compounds, read-out: IC50 PDE4D
[6] = Table 1B, Formula I compounds, read-out: IC50 PDE4B
[7] = po, 2 h, rat in vivo inhibition assay, 100 mg/kg po, 2 hr challenge delay
[8] = po, 1 h, rat, 100 mg/kg po, 1 hr challenge delay
[9] = po, 2 h, rat in vivo, 100 mg/kg po, 2 hr challenge delay, percent decrease in TNFα versus vehicle
[10] = second part of Table 2B (2-23 to 2-103), column 5, column is PDE4D in first part, read-out: IC 50 vs. indicated assay h TNFα
[11] = second part of Table 2B (2-23 to 2-103), column 3, column is PDE4B in first part, read-out: IC 50 vs. indicated assay h TNFα
[12] = po, 1 h, rat in vivo, 100 mg/kg po, 1 hr

T2 sequence (Q07343 with tags, fused parts or gaps): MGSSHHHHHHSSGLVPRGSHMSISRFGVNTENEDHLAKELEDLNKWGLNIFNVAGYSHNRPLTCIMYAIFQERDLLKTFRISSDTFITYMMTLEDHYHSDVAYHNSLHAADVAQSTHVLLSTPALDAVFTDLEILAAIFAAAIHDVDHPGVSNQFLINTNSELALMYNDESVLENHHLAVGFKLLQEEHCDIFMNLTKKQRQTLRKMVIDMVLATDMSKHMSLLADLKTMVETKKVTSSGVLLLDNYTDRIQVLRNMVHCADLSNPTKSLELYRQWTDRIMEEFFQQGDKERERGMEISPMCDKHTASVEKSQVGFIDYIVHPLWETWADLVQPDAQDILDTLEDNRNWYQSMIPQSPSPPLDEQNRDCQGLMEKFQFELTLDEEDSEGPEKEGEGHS
T3 sequence (Q07343 1-564 isoform Q07343-2): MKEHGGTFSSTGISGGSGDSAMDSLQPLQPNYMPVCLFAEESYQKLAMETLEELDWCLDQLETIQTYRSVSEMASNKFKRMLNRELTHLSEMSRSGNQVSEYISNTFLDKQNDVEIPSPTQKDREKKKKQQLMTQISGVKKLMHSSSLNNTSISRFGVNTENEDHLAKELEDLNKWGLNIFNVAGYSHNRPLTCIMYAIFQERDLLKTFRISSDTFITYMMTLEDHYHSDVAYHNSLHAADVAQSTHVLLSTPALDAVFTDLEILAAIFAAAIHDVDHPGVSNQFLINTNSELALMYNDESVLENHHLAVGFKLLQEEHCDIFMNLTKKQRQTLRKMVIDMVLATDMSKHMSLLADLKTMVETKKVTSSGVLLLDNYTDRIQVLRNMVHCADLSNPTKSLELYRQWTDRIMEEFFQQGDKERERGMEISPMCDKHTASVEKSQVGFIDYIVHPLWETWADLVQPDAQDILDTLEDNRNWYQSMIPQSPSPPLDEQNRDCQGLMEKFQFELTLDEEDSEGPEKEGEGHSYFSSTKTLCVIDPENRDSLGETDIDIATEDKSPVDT
T1 sequence (Q08499 380-756): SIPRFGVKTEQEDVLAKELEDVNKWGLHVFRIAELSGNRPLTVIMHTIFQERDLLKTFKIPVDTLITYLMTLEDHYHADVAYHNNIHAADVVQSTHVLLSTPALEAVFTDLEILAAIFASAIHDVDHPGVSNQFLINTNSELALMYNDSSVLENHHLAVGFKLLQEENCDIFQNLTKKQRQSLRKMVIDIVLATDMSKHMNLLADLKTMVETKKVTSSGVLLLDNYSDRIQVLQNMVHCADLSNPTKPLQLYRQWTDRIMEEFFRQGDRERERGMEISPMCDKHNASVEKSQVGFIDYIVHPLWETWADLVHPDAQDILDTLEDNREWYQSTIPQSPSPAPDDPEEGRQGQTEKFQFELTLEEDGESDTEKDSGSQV
T4 sequence (Q08499 1-745 isoform Q08499-6): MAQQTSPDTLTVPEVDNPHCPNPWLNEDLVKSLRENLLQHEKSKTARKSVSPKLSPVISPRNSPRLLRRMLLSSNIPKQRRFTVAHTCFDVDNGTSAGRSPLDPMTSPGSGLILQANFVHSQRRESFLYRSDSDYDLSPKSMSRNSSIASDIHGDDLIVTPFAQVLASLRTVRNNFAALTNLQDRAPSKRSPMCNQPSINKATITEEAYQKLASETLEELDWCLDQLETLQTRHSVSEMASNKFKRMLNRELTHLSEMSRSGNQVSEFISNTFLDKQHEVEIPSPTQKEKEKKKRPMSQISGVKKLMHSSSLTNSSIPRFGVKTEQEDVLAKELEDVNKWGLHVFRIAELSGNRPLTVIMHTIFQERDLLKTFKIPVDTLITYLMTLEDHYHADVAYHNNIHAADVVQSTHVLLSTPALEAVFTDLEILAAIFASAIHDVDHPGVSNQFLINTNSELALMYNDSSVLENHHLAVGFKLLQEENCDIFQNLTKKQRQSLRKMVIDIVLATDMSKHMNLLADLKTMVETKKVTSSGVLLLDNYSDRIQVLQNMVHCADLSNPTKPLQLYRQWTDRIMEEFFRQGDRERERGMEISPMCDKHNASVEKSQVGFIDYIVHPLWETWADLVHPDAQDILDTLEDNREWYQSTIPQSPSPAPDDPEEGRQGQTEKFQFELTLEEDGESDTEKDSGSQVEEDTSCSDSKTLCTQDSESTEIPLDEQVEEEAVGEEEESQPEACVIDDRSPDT

| SMILES | IC50 (PDE4D; [5]) [µM] | IC50 [1, 6] [µM] | IC50 [2] [µM] | IC50 [4] [µM] | inhibition in vivo at 100 mg/kg [3, 7] [%] | IC50 (PDE4D; [10]) [µM] | IC50 [1, 11] [µM] | further results |
| --- | --- | --- | --- | --- | --- | --- | --- | --- |
| Cc1ccc(C(=O)c2sc(Nc3ccccc3)c(C#N)c2N)cc1 [Compound 1-29, 4-Amino-5-(4-methyl-benzoyl)-2-phenylamino-thiophene-3-carbonitrile] | < 10 | < 10 | < 10 | < 10 |  |  |  | inhibition in vivo at 100 mg/kg ([3]; ip, 1 h, rat, 100 mg/kg, ip, 1 hr challenge delay): > 20% |
| COc1ccccc1Nc1sc(C(=O)c2ccccc2)c(N)c1C#N [Compound 1-30, 4-Amino-5-benzoyl-2-(2-methoxy-phenylamino)-thiophene-3-carbonitrile] | < 10 | < 10 | < 10 | < 10 | > 20 |  |  |  |
| COc1ccc(Nc2sc(C(=O)c3ccccc3)c(N)c2C#N)cc1 [Compound 1-32, 4-Amino-5-benzoyl-2-(4-methoxy-phenylamino)-thiophene-3-carbonitrile] | < 10 | < 10 | < 10 | < 10 | < 20 |  |  |  |
| COc1cccc(C(=O)c2sc(Nc3ccccc3)c(C#N)c2N)c1 [Compound 1-33, 4-Amino-5-(3-methoxy-benzoyl)-2-phenylamino-thiophene-3-carbonitrile] | < 10 | < 10 | < 10 | < 10 | > 20 |  |  |  |
| N#Cc1c(Nc2ccccc2)sc(C(=O)c2ccc(-c3ccccc3)cc2)c1N [Compound 1-34, 4-Amino-5-(biphenyl-4-carbonyl)-2-phenylamino-thiophene-3-carbontrile] | < 10 | < 10 | < 10 | < 10 | > 20 |  |  |  |
| N#Cc1c(Nc2ccccc2)sc(C(=O)c2ccc3ccccc3c2)c1N [Compound 1-35, 4-Amino-5-(naphthalene-2-carbonyl)-2-phenylamino-thiophene-3-carbonitrile] | < 10 | < 10 | < 10 | < 10 | < 20 |  |  |  |
| COc1ccc(C(=O)c2sc(Nc3ccc(Cl)cc3)c(C#N)c2N)cc1 [Compound 1-36, 4-Amino-2-(4-chloro-phenylamino)-5-(4-methoxy-benzoyl)-thiophene-3-carbonitrile] | < 10 | < 10 | < 10 | < 10 |  |  |  | inhibition in vivo at 100 mg/kg [3, 8]: < 20% |
| COc1ccc(C(=O)c2sc(Nc3ccc(F)cc3)c(C#N)c2N)cc1 [Compound 1-37, 4-Amino-2-(4-fluoro-phenylamino)-5-(4-methoxy-benzoyl)-thiophene-3-carbonitrile] | < 10 | < 10 | < 10 | < 10 |  |  |  | inhibition in vivo at 100 mg/kg [3, 8]: < 20% |
| N#Cc1c(Nc2ccc(OC(F)F)cc2)sc(C(=O)c2ccccc2)c1N [Compound 1-166, 4-Amino-5-benzoyl-2-(4-difluoromethoxy-phenylamino)-thiophene-3-carbonitrile] | < 10 | < 10 |  |  | < 20 |  |  |  |
| CSc1ccc(Nc2sc(C(=O)c3ccccc3)c(N)c2C#N)cc1 [Compound 1-167, 4-Amino-5-benzoyl-2-(4-methylsulfanyl-phenylamino)-thiophene-3-carbonitrile] | < 10 | < 10 |  |  | < 20 |  |  |  |
| COc1ccc(C(=O)c2sc(Nc3cccc(SC)c3)c(C#N)c2N)cc1 [Compound 1-177, 4-Amino-5-(4-methoxy-benzoyl)-2-(3-methylsulfanyl-phenylamino)-thiophene-3-carbonitrile] | < 10 | < 10 |  |  | < 20 |  |  |  |
| N#Cc1c(NCc2ccccc2)sc(C(=O)c2cc(-c3ccccc3)no2)c1N [Compound 1-193, 4-Amino-2-benzylamino-5-(3-phenyl-isoxazole-5-carbonyl)-thiophene-3-carbonitrile] |  | < 10 | > 10 | > 10 | < 20 |  |  |  |
| CC(C)C(C)Nc1sc(C(=O)c2cc(-c3ccc(Cl)c(Cl)c3)no2)c(N)c1C(N)=O (stereo not drawn) [Compound 1-248, 4-Amino-5-[3-(3,4-dichloro-phenyl)-isoxazole-5-carbonyl]-2-(1,2-dimethyl-propylamino)-thiophene-3-carboxylic acid amide] | < 10 | < 10 | < 10 | > 10 |  |  |  |  |
| CCOC(=O)c1cc(C(=O)c2sc(Nc3ccccc3F)nc2N)on1 [Compound 2-1, 5-[4-Amino-2-(2-fluoro-phenylamino)-thiazole-5-carbonyl]-isoxazole-3-carboxylic acid ethyl ester] |  |  |  |  |  |  |  | IC50 (PDE4D; first part of Table 2B (2-1 to 2-22), read-out: IC 50 vs. indicated assay PDE4D): < 10 µM; IC50 ([1]; first part of Table 2B (2-1 to 2-22), read-out: IC 50 vs. indicated assay PDE4B): < 10 µM; inhibition in vivo at 100 mg/kg [3, 9]: < 20% |
| CCOC(=O)c1ccc(Nc2nc(N)c(C(=O)c3ccccc3)s2)cc1 [Compound 2-33, 4-(4-Amino-5-benzoyl-thiazol-2-ylamino)-benzoic acid ethyl ester] |  |  |  |  |  | > 10 | < 10 | inhibition in vivo at 100 mg/kg [3, 9]: > 20% |
| COC(=O)c1cccc(Nc2nc(N)c(C(=O)c3ccccc3)s2)c1 [Compound 2-34, 3-(4-Amino-5-benzoyl-thiazol-2-ylamino)-benzoic acid methyl ester] |  |  |  |  |  | < 10 | < 10 | inhibition in vivo at 100 mg/kg [3, 9]: < 20% |
| CCOC(=O)c1ccc(Nc2nc(N)c(C(=O)c3ccc(OC)cc3)s2)cc1 [Compound 2-38, 4-[4-Amino-5-(4-methoxy-benzoyl)-thiazol-2-ylamino]-benzoic acid ethyl ester] |  |  |  |  |  | < 10 | < 10 | inhibition in vivo at 100 mg/kg [3, 12]: < 20% |
| COc1ccc(C(=O)c2sc(Nc3ccc(C(=O)O)cc3)nc2N)cc1 [Compound 2-40, 4-[4-Amino-5-(4-methoxy-benzoyl)-thiazol-2-ylamino]-benzoic acid] |  |  |  |  |  | < 10 | < 10 | inhibition in vivo at 100 mg/kg [3, 12]: < 20% |
| COc1ccc(C(=O)c2sc(Nc3c(Cl)cccc3Cl)nc2N)cc1 [Compound 2-41, [4-Amino-2-(2,6-dichloro-phenylamino)-thiazol-5-yl]-(4-methoxy-phenyl)-methanone] |  |  |  |  |  | < 10 | < 10 | inhibition in vivo at 100 mg/kg [3, 9]: < 20% |
| Nc1nc(Nc2c(Cl)cccc2Cl)sc1C(=O)C1CCCC1 [Compound 2-93, [4-Amino-2-(2,6-dichloro-phenylamino)-thiazol-5-yl]-cyclopentyl-methanone] |  |  |  |  |  | < 10 | < 10 | inhibition in vivo at 100 mg/kg [3, 12]: < 20% |

Source: patent US7585859B2, “PDE4B inhibitors and uses therefor” (Plexxikon, Inc., priority 2004, dated 2009)
